How the values were obtained:
male Wistar rats = assay: Foot shock-induced ultrasonic vocalization (USV) in adult rats; format: in vivo; conditions: Rattus norvegicus, po, p.o., 1 h before shocking
Protocol: Foot Shock-Induced Ultrasonic Vocalization (USV) in Adult Rats
Under stressful conditions, adult rats emit 22 kHz ultrasounds that can be reduced by various pharmacological treatments (De Vry et al, Eur. J. Pharmacol. 1993, 249, 331-339; Sanchez, Eur. J. Pharmacol. 2003, 463, 133-143). […] Therefore, a foot shock-induced vocalization paradigm in adult rats was used to assess in vivo efficacy of centrally acting GABAB receptor ligands. Behavioral measurements were carried out on male Wistar rats (200-250 g, Toxicoop, Hungary or Janvier, France). Rats were housed in groups of four in plastic cages with a wire grid top in a temperature and light-controlled laboratory animal care unit (22±2° C., 12-h light/dark cycle, lights on at 6:00 AM) with ad libitum access to commercial pellet rat food and tap water. Investigations were approved by the Local Ethical Committee of Gedeon Richter Plc. and were carried out in strict compliance with the European Directive 2010/63/EU regarding the care and use of laboratory animals for experimental procedures and all efforts were made to minimize the number of animals as well as their suffering. In order to evoke emission of ultrasounds, animals were footshocked after a habituation period of 30 s (6 shocks, 1 s, 0.8 mA each, inter-shock interval 10 s) in a sound attenuated shocking chamber (Experimetria, 40×40×80 cm). […] Vocalizations were measured right after the last footshock for 10 min with a Metris Sonotrack system and the total time of vocalizations was registered. Vocalization of parallel vehicle treated animals was considered as control value and inhibition percent was calculated for each compound.
In Table 2 compounds of this invention measured in the USV assay are listed.

GABAB receptor = biological target: T1, GABAB receptor (Rattus norvegicus, UniProt O88871+Q9Z0U4); assay: In vitro [35S]GTPγS binding assay in rat cortical membranes; format: biochemical; conditions: PAM EC50, [35S]GTPγS binding, read-out: In vitro PAM potency
T1 construct: from tissue; host or cells: rat brain cortex membranes
Protocol: In Vitro [^35S]GTPγS Binding Assay in Rat Cortical Membranes
Cortices of freshly harvested rat brains were dissected on an ice-cold surface and homogenized by a glass Dounce homogeniser immediately in ice-cold buffer containing 50 mM Tris, 5 mM MgCl2 and 1 mM EDTA (pH=7.6). Tissue homogenates were centrifuged at 40000 g for 15 min at 4° C. Membrane pellets were resuspended in the same buffer and membranes were incubated for 10 min at 30° C. in a shaking water bath to eliminate endogenous GABA. Homogenates were centrifuged again under the same conditions. The final pellets were resuspended in ice-cold buffer (pH=7.6) containing 50 mM Tris, 100 mM NaCl, 7 mM MgCl2, 1 mM EDTA and 1 mM dithiotreithol (DTT) to yield a concentration of 20 mg tissue weight/ml and frozen at −70° C. until use. The assay was done in a buffer containing 50 mM Tris (pH=7.4), 100 mM NaCl, 7 mM MgCl2, 1 mM EDTA and 1 mM DTT. Each assay tube contained 150 μL GDP (in a final concentration of 50 μM), 100 μL ligand and 125 μL of the membrane suspension ([…]). The assay tubes were preincubated for 10 min at 30° C. to assure equilibrium. Nonspecific binding was determined in the presence of 10 μM GTPγS; basal binding was determined in the presence of buffer only. After addition of […] [^35S]GTPγS in a volume of 25 μL to the tubes, membranes were incubated for an additional 60 min at 30° C. The assay was terminated by rapid filtration through Packard UniFilter GF/B using a Packard harvester and washed four times with 1 ml ice-cold buffer. After drying the filters at 40° C. for 1 h, 40 μL Microscint (Packard) was added to the filters and radioactivity of the filters was determined by a TopCount NXT (PerkinElmer, Waltham, MA; Alper and Nelson, Eur. J. Pharmacol. 1998, 343, 303-312; Rinken et al, Biochem. Pharmacol. 1999, 57, 155-162). Data thus gathered were used to determine PAM EC50 values for each compound as primary in vitro activity end point.
In Table 1 compounds of this invention measured in the [^35S]GTPγS binding assay are listed.

T1 sequence (O88871 41-940): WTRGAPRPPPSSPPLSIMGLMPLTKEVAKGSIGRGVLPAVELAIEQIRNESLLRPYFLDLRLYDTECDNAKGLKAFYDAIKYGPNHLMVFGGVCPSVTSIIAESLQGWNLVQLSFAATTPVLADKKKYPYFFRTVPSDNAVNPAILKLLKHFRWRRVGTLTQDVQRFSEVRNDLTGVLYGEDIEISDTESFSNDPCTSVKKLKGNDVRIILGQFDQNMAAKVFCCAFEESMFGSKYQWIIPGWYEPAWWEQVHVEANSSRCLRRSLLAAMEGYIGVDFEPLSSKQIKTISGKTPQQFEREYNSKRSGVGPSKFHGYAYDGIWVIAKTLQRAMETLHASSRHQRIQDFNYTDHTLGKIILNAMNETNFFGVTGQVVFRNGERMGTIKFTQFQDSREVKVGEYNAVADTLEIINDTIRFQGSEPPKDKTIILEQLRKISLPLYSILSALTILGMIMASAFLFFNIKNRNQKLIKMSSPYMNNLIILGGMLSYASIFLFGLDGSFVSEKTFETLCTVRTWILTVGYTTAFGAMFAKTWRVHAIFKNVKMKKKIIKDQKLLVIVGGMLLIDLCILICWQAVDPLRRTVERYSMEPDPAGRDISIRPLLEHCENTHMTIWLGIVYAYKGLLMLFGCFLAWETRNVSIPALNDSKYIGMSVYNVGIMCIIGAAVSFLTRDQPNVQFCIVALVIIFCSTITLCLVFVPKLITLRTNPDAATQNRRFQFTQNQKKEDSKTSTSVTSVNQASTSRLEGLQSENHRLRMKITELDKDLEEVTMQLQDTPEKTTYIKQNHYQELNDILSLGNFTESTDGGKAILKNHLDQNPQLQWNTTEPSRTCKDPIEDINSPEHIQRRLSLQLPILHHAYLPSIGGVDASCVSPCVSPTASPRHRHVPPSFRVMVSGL
T1 sequence (Q9Z0U4 17-960 limits assumed): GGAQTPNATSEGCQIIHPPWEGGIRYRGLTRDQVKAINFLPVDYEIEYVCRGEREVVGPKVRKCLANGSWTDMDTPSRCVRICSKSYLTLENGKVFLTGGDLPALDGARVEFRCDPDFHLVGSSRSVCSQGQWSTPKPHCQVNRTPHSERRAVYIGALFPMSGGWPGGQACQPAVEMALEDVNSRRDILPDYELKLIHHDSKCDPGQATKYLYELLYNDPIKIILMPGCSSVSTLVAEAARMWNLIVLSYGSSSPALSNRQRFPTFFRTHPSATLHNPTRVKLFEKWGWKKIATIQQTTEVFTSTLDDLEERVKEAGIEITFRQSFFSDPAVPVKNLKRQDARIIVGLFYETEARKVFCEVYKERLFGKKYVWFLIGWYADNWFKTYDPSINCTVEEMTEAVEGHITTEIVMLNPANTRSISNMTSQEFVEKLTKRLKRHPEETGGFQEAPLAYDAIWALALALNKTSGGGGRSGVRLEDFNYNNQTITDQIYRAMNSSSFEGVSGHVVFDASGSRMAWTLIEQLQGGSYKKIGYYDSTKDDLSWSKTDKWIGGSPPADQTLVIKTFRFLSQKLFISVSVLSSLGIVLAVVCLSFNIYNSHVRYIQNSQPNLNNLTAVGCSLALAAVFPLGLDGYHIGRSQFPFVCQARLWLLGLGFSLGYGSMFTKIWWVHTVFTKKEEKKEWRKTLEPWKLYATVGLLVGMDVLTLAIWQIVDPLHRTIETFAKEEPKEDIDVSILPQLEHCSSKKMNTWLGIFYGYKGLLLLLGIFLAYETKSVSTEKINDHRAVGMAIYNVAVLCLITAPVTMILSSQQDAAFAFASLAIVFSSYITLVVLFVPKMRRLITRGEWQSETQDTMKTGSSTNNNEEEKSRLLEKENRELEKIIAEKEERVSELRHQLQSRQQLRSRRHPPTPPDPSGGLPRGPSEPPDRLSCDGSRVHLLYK

`COC(=O)N1CCC[C@@H](c2c(C)c(C)nc3cc([C@H]4CC[C@H](C(F)(F)F)CC4)nn23)C1` [Example 47] gave an inhibition in vivo at 10 mg/kg (male Wistar rats) of 63% and an EC50 (GABAB receptor) of 100 to 1000 nM.

For `CC(=O)N1CCC[C@H](c2c(C)c(C)nc3cc([C@H]4CC[C@H](C(F)(F)F)CC4)nn23)C1` [Example 43], the inhibition in vivo at 10 mg/kg (male Wistar rats) was 41% and the EC50 (GABAB receptor) was 100 to 1000 nM.

`CCc1c(C)nc2cc([C@H]3CC[C@H](C(F)(F)F)CC3)nn2c1[C@@H]1CCCN(C(C)=O)C1` [Example 39] was tested, and the inhibition in vivo at 3 mg/kg (male Wistar rats) was 33% and the EC50 (GABAB receptor) was 100 to 1000 nM.

Work on `Cc1cc([C@H]2CN(C=O)CC[C@H]2C)n2nc([C@H]3CC[C@H](C(F)(F)F)CC3)cc2n1` (single isomer, unassigned) [Example 9] yielded an inhibition in vivo at 1 mg/kg (male Wistar rats) of 71% and an EC50 (GABAB receptor) of under 100 nM.

`CCc1c(C)nc2cc([C@H]3CC[C@H](C(F)(F)F)CC3)nn2c1[C@@H]1CN(C(C)=O)CC[C@@H]1C` [Example 66] was tested, and the inhibition in vivo at 1 mg/kg (male Wistar rats) was 49% and the EC50 (GABAB receptor) was under 100 nM.

For `CCOC(=O)N1CCO[C@@H](c2cc(C)nc3cc([C@H]4CC[C@H](C(F)(F)F)CC4)nn23)C1` [Example 116], the inhibition in vivo at 1 mg/kg (male Wistar rats) was 0% and the EC50 (GABAB receptor) was 100 to 1000 nM.

`CCc1c(C)nc2cc([C@H]3CC[C@H](C(F)(F)F)CC3)nn2c1C1CN(C=O)CCO1` (stereo partly drawn) [Example 82] gave an inhibition in vivo at 1 mg/kg (male Wistar rats) of 86% and an EC50 (GABAB receptor) of under 100 nM.

For `CC(=O)N1CCC[C@@H](c2cc(C)nc3cc([C@H]4CC[C@H](C(F)(F)F)CC4)nn23)C1` [Example 32], the inhibition in vivo at 3 mg/kg (male Wistar rats) was 68% and the EC50 (GABAB receptor) was 100 to 1000 nM.

`Cc1nc2cc([C@H]3CC[C@H](C(F)(F)F)CC3)nn2c(C2CN(C=O)CC(F)(F)C2)c1C` (stereo partly drawn) [Example 75] showed an inhibition in vivo at 1 mg/kg (male Wistar rats) of 19% and an EC50 (GABAB receptor) of under 100 nM.

`COC(=O)N1CC[C@@H](C)[C@H](c2cc(C)nc3cc([C@H]4CC[C@H](C(F)(F)F)CC4)nn23)C1` (single isomer, unassigned) [Example 5] gave an inhibition in vivo at 1 mg/kg (male Wistar rats) of 88% and an EC50 (GABAB receptor) of under 100 nM.

`COC(=O)N1CCO[C@@H](c2cc(C)nc3cc([C@H]4CC[C@H](C(F)(F)F)CC4)nn23)C1` [Example 91] showed an inhibition in vivo at 1 mg/kg (male Wistar rats) of 89% and an EC50 (GABAB receptor) of under 100 nM.

For `CC(=O)N1CC[C@H](C)[C@H](c2cc(C)nc3c(F)c([C@H]4CC[C@H](C(F)(F)F)CC4)nn23)C1` (racemic) [Example 158], the inhibition in vivo at 3 mg/kg (male Wistar rats) was 35% and the EC50 (GABAB receptor) was 100 to 1000 nM.

For `Cc1nc2cc([C@H]3CC[C@H](C(F)(F)F)CC3)nn2c([C@@H]2CN(C=O)CC[C@@H]2C)c1C` [Example 58], the inhibition in vivo at 1 mg/kg (male Wistar rats) was 44% and the EC50 (GABAB receptor) was under 100 nM.

`Cc1cc([C@H]2CN(C=O)CC[C@@H]2C)n2nc([C@H]3CC[C@H](C(F)(F)F)CC3)cc2n1` [Example 68] showed an inhibition in vivo at 1 mg/kg (male Wistar rats) of 39% and an EC50 (GABAB receptor) of under 100 nM.

In the case of `CCc1c(C)nc2cc([C@H]3CC[C@H](C(F)(F)F)CC3)nn2c1[C@H]1CCCN(C(C)=O)C1` [Example 42], the inhibition in vivo at 10 mg/kg (male Wistar rats) is reported as 91% and the EC50 (GABAB receptor) is reported as under 100 nM.

`COC(=O)N1CCO[C@@H](c2cc(C)nc3cc([C@H]4CC[C@H](C(C)(C)C)CC4)nn23)C1` [Example 132] gave an inhibition in vivo at 1 mg/kg (male Wistar rats) of 65% and an EC50 (GABAB receptor) of under 100 nM.

Compound `Cc1cc([C@H]2CN(C(=O)c3cocn3)CCO2)n2nc([C@H]3CC[C@H](C(F)(F)F)CC3)cc2n1` [Example 113] has an inhibition in vivo at 1 mg/kg (male Wistar rats) of 66% and an EC50 (GABAB receptor) of 100 to 1000 nM.

Work on `COC(=O)N1CCO[C@@H](c2cc(C)nc3c(F)c([C@H]4CC[C@H](C(F)(F)F)CC4)nn23)C1` [Example 117] yielded an inhibition in vivo at 1 mg/kg (male Wistar rats) of 73% and an EC50 (GABAB receptor) of under 100 nM.

`Cc1cc([C@H]2CN(S(=O)(=O)N(C)C)CCO2)n2nc([C@H]3CC[C@H](C(F)(F)F)CC3)cc2n1` [Example 120] showed an EC50 (GABAB receptor) of 100 to 1000 nM.

With `COC(=O)N1C[C@H](c2cc(C)nc3cc([C@H]4CC[C@H](C(F)(F)F)CC4)nn23)OC[C@@H]1C` [Example 102] the EC50 (GABAB receptor) was under 100 nM.

Work on `COC(=O)N1CCS(=O)(=O)[C@@H](c2cc(C)nc3cc([C@H]4CC[C@H](C(F)(F)F)CC4)nn23)C1` [Example 90] yielded an EC50 (GABAB receptor) of at least 10000 nM.

With `CC(=O)N1CCCC(CF)(c2cc(C)nc3cc([C@H]4CC[C@H](C(F)(F)F)CC4)nn23)C1` (stereo partly drawn) [Example 62] the EC50 (GABAB receptor) was 100 to 1000 nM.

In the case of `Cc1cc([C@H]2C[C@@H](C)CN(C=O)C2)n2nc([C@H]3CC[C@H](C(F)(F)F)CC3)cc2n1` (racemic) [Example 104], the EC50 (GABAB receptor) is reported as 100 to 1000 nM.

With `Cc1cc(C2CN(C=O)CCS2(=O)=O)n2nc([C@H]3CC[C@H](C(F)(F)F)CC3)cc2n1` (stereo partly drawn) [Example 87] the EC50 (GABAB receptor) was at least 10000 nM.

`Cc1cc(C2CN(C=O)CCC2(C)C)n2nc([C@H]3CC[C@H](C(F)(F)F)CC3)cc2n1` (stereo partly drawn) [Example 59] showed an EC50 (GABAB receptor) of 100 to 1000 nM.

`Cc1nc2cc([C@H]3CC[C@H](C(F)(F)F)CC3)nn2c([C@@H]2CN(C)CC[C@@H]2C)c1C` (racemic) [Example 56] was tested, and the EC50 (GABAB receptor) was 1000 to 10000 nM.

`Cc1cc([C@@H]2CCCS(=O)(=O)C2)n2nc([C@H]3CC[C@H](C(F)(F)F)CC3)cc2n1` [Example 27, 3-{5-methyl-2-[trans-4-(trifluoromethyl)cyclohexyl]pyrazolo[1,5-a]pyrimidin-7-yl}-1λ^6-thiane-1,1-dione] was tested, and the EC50 (GABAB receptor) was 100 to 1000 nM.

`Cc1cc([C@@H]2CCCOC2)n2nc([C@H]3CC[C@H](C(F)(F)F)CC3)cc2n1` (single isomer, unassigned) [Example 29] was tested, and the EC50 (GABAB receptor) was 100 to 1000 nM.

`COC(=O)N1CC[C@H](C)[C@H](c2cc(C)nc3cc([C@H]4CC[C@H](C(F)(F)F)CC4)nn23)C1` (racemic) [Example 76] showed an EC50 (GABAB receptor) of 100 to 1000 nM.

Work on `Cc1cc([C@H]2CN(C(=O)N(C)C)CCO2)n2nc([C@H]3CC[C@H](C(F)(F)F)CC3)cc2n1` [Example 112] yielded an inhibition in vivo at 1 mg/kg (male Wistar rats) of 72% and an EC50 (GABAB receptor) of 100 to 1000 nM.

In the case of `CNC(=O)N1CCO[C@@H](c2cc(C)nc3cc([C@H]4CC[C@H](C(F)(F)F)CC4)nn23)C1` [Example 111], the inhibition in vivo at 1 mg/kg (male Wistar rats) is reported as 44% and the EC50 (GABAB receptor) is reported as 100 to 1000 nM.
